{"source": "patent US5358947A", "about": "“Angiotensin II receptor blocking 2,3-substituted pyrazolo[1,5-a]-1,3,5-triazin-4(3H)-ones” (American Cyanamid Company, priority 1993, dated 1994)", "system": "ANGIOTENSIN II (AII) VASOPRESSOR RESPONSE", "assay": "AII Challenge: angiotensin II (AII) vasopressor response in conscious rats", "format": "in vivo", "parameters": "Response After AII / Change / Average Change: unit not given here", "details": "10 mg/kg i.v.; for Change / Response After AII / Control Before AII: individual rat, listed as Ex. 12; for Control Before AII: in mmHg (unit assumed); for % Inhibition / Average Change: n = 2", "description": "By administering a compound of this invention to a rat, and then challenging with angiotensin II, a blockage of the vasopressor response is realized.\nConscious Male Okamoto-Aoki SHR, 16-20 weeks old, weighing approximately 330 g are purchased from Charles River Labs (Wilmington, Mass.). Conscious rats are restrained in a supine position with elastic tape. The area at the base of the tail is locally anesthetized by subcutaneous infiltration with 2% procaine. The ventral caudal artery and vein are isolated, and a cannula made of polyethylene (PE) 10-20 tubing (fused together by heat) is passed into the lower abdominal aorta and vena cava, respectively. The cannula is secured, heparinized (1,000 I.U./ml), sealed and the wound is closed. The animals are placed in plastic restraining cages in an upright position. The cannula is attached to s Statham P23Db pressure transducer, and pulsatile blood pressure is recorded to 10-15 minutes with a Gould Brush recorder. (Chan et al., (Drug Development Res., 18:75-94, 1989).\nAngiotensin II (human sequence, Sigma Chem. Co., St. Louis, Mo.) of 0.05 and 0.1 ug/kg i.v. is injected into all rats (predosing response.). Then a test compound, vehicle or a known angiotensin II antagonist is administered i.v., i.p. or orally to each set of rats. The two doses of angiotensin II are given to each rat again at 30, 60, 90, 120, 180, 240 and 300 minutes post dosing the compound or vehicle. The vasopressor response of angiotensin II by a compound is calculated using the vasopressor response (increase in systolic blood pressure) of angiotensin II of each rat predosing the compound as 100%. A compound is considered active if at 30 mg/kg i.v. it antagonized at least 50% of the response.", "key": {"[1]": {"details": "AII 0.05 mcg/kg, 30 min post dose"}, "[2]": {"details": "AII 0.05 mcg/kg, 60 min post dose"}, "[3]": {"details": "AII 0.05 mcg/kg, 90 min post dose"}, "[4]": {"details": "AII 0.05 mcg/kg, 120 min post dose"}, "[5]": {"details": "AII 0.05 mcg/kg, 180 min post dose"}, "[6]": {"details": "AII 0.05 mcg/kg, 240 min post dose"}, "[7]": {"details": "AII 0.05 mcg/kg, 300 min post dose"}, "[8]": {"details": "AII 0.1 mcg/kg, 30 min post dose"}, "[9]": {"details": "AII 0.1 mcg/kg, 60 min post dose"}, "[10]": {"details": "AII 0.1 mcg/kg, 90 min post dose"}, "[11]": {"details": "AII 0.1 mcg/kg, 120 min post dose"}, "[12]": {"details": "AII 0.1 mcg/kg, 180 min post dose"}, "[13]": {"details": "AII 0.1 mcg/kg, 240 min post dose"}, "[14]": {"details": "AII 0.1 mcg/kg, 300 min post dose"}}, "note": "“And” between values parts separate entries of the source, which are not always exact repeats. Equal entries are not always repeated."}
{"smiles": "CCCCc1nc2cc(-c3ccc(F)cc3)nn2c(=O)n1Cc1ccc(-c2ccccc2-c2nnn[nH]2)cc1", "note": "[Example 12, 2-Butyl-7-(4-fluorophenyl)-3-[[2'-(1H-tetrazol-5-yl)[1,1'-biphenyl]-4-yl]methyl]pyrazolo[1,5-a]-1,3,5-triazin-4(3H)-one]", "values": [{"measurement": "Change", "setting": "[1]", "result": "10 and 20"}, {"measurement": "Response After AII", "setting": "[1]", "result": "205 and 245"}, {"measurement": "Control Before AII", "setting": "[1]", "result": "195 and 225"}, {"measurement": "% Inhibition", "setting": "[1]", "result": 73, "unit": "%"}, {"measurement": "Average Change", "setting": "[1]", "result": 15}, {"measurement": "Change", "setting": "[2]", "result": "20 and 10"}, {"measurement": "Response After AII", "setting": "[2]", "result": "200 and 240"}, {"measurement": "Control Before AII", "setting": "[2]", "result": "180 and 230"}, {"measurement": "% Inhibition", "setting": "[2]", "result": 7, "unit": "%"}, {"measurement": "Average Change", "setting": "[2]", "result": 15}, {"measurement": "Change", "setting": "[3]", "result": "20 and 25"}, {"measurement": "Response After AII", "setting": "[3]", "result": "185 and 250"}, {"measurement": "Control Before AII", "setting": "[3]", "result": "165 and 225"}, {"measurement": "% Inhibition", "setting": "[3]", "result": 59, "unit": "%"}, {"measurement": "Average Change", "setting": "[3]", "result": 22.5}, {"measurement": "Change", "setting": "[4]", "result": "25 and 30"}, {"measurement": "Response After AII", "setting": "[4]", "result": "185 and 255"}, {"measurement": "Control Before AII", "setting": "[4]", "result": "160 and 225"}, {"measurement": "% Inhibition", "setting": "[4]", "result": 50, "unit": "%"}, {"measurement": "Average Change", "setting": "[4]", "result": 27.5}, {"measurement": "Change", "setting": "[5]", "result": "10 and 33"}, {"measurement": "Response After AII", "setting": "[5]", "result": "195 and 240"}, {"measurement": "Control Before AII", "setting": "[5]", "result": "185 and 207"}, {"measurement": "% Inhibition", "setting": "[5]", "result": 61, "unit": "%"}, {"measurement": "Average Change", "setting": "[5]", "result": 21.5}, {"measurement": "Change", "setting": "[6]", "result": "10 and 35"}, {"measurement": "Response After AII", "setting": "[6]", "result": "195 and 255"}, {"measurement": "Control Before AII", "setting": "[6]", "result": "185 and 220"}, {"measurement": "% Inhibition", "setting": "[6]", "result": 59, "unit": "%"}, {"measurement": "Average Change", "setting": "[6]", "result": 22.5}, {"measurement": "Change", "setting": "[7]", "result": "15 and 35"}, {"measurement": "Response After AII", "setting": "[7]", "result": "200 and 260"}, {"measurement": "Control Before AII", "setting": "[7]", "result": "185 and 225"}, {"measurement": "% Inhibition", "setting": "[7]", "result": 55, "unit": "%"}, {"measurement": "Average Change", "setting": "[7]", "result": 25}, {"measurement": "Change", "setting": "[8]", "result": "10 and 15"}, {"measurement": "Response After AII", "setting": "[8]", "result": "210 and 250"}, {"measurement": "Control Before AII", "setting": "[8]", "result": "200 and 235"}, {"measurement": "% Inhibition", "setting": "[8]", "result": 76, "unit": "%"}, {"measurement": "Average Change", "setting": "[8]", "result": 12.5}, {"measurement": "Change", "setting": "[9]", "result": "15 and 30"}, {"measurement": "Response After AII", "setting": "[9]", "result": "205 and 250"}, {"measurement": "Control Before AII", "setting": "[9]", "result": "190 and 220"}, {"measurement": "% Inhibition", "setting": "[9]", "result": 57, "unit": "%"}, {"measurement": "Average Change", "setting": "[9]", "result": 22.5}, {"measurement": "Change", "setting": "[10]", "result": "30 and 25"}, {"measurement": "Response After AII", "setting": "[10]", "result": "200 and 260"}, {"measurement": "Control Before AII", "setting": "[10]", "result": "170 and 235"}, {"measurement": "% Inhibition", "setting": "[10]", "result": 48, "unit": "%"}, {"measurement": "Average Change", "setting": "[10]", "result": 27.5}, {"measurement": "Change", "setting": "[11]", "result": "25 and 42"}, {"measurement": "Response After AII", "setting": "[11]", "result": "195 and 267"}, {"measurement": "Control Before AII", "setting": "[11]", "result": "170 and 225"}, {"measurement": "% Inhibition", "setting": "[11]", "result": 36, "unit": "%"}, {"measurement": "Average Change", "setting": "[11]", "result": 33.5}, {"measurement": "Change", "setting": "[12]", "result": "15 and 40"}, {"measurement": "Response After AII", "setting": "[12]", "result": "200 and 250"}, {"measurement": "Control Before AII", "setting": "[12]", "result": "185 and 210"}, {"measurement": "% Inhibition", "setting": "[12]", "result": 48, "unit": "%"}, {"measurement": "Average Change", "setting": "[12]", "result": 27.5}, {"measurement": "Change", "setting": "[13]", "result": "15 and 45"}, {"measurement": "Response After AII", "setting": "[13]", "result": "200 and 270"}, {"measurement": "Control Before AII", "setting": "[13]", "result": "185 and 225"}, {"measurement": "% Inhibition", "setting": "[13]", "result": 43, "unit": "%"}, {"measurement": "Average Change", "setting": "[13]", "result": 30}, {"measurement": "Change", "setting": "[14]", "result": "20 and 50"}, {"measurement": "Response After AII", "setting": "[14]", "result": "205 and 275"}, {"measurement": "Control Before AII", "setting": "[14]", "result": "185 and 225"}, {"measurement": "% Inhibition", "setting": "[14]", "result": 33, "unit": "%"}, {"measurement": "Average Change", "setting": "[14]", "result": 35}]}
